Consider 3 molecules from patent publication US10760087B2, “Compositions, methods, and plant genes for the improved production of fermentable sugars for biofuel production” (priority 2012, dated 2020).

What all share (assay type): in vivo
Test [1] deals with Arabidopsis wild-type and CesA1/CesA3/CesA6 mutant alleles. Kind of test: Root length of Arabidopsis wild-type and CESA mutant lines on cellulose biosynthetic inhibitors (CBI resistance). Conditions: Arabidopsis thaliana. How it is done:
Further genetic screens aimed at identifying resistance to cellulose biosynthetic inhibitors (CBIs) were also conducted. The aim of conducting resistance screens can be to identify potential inhibitor targets. In the case of some CBIs, like isoxaben, resistance screens have been carried out using high concentrations of the inhibitor with the aim of identifying the target protein. Indeed, high resistance to isoxaben is only possible if certain CELLULOSE SYNTHASE (CESA) genes are altered by mutation. An unforeseen consequence of some of the resistance alleles has been to reduce overall cellulose crystallinity, which ultimately leads to overall improved saccharification of starting cell wall material. With this information as a starting point, the inventors sought to identify novel CESA alleles by conducting additional resistance screens, but utilizing much lower CBI concentrations than in the original screens.
EMS mutagenized plants (M2) were screened on 20 nM of two different CBIs, isoxaben or flupoxam. […] In total, 2 million M2 seeds were screened and 12 new CESA alleles were isolated, 3 in CESA1, 8 in CESA3 and 1 in CESA6. All of the new mutant alleles led to single amino acid substitutions, which could not have been predicted a priori.

Another test concerns Zea mays (maize). Kind of test: Sugar release by 0.2 M H2SO4 acid hydrolysis of NPA-treated maize. Conditions: two maize cultivars, 120 μM NPA for 2 weeks. An excerpt: (Results are averages ±s.d. (n=6-9).)
(§1) The connection between auxin transport and increased sugar release was further probed using a specific inhibitor of auxin transport N-1-naphthylphthalamic acid (NPA). […] More importantly, the ability to chemically perturb auxin transport allowed the expansion of the analysis to Zea mays (maize). […] Moreover, it appears that genes and processes identified using Arabidopsis can be transferred to maize and potentially other monocot species dedicated to biofuel production.
Polar auxin transport inhibition was carried out as described by Wu & McSteen, 2007. The two maize cultivars, Syngenta hybrid N39-Q1 and Tuxedo Sweet Corn, were grown in a greenhouse at 24° C. with a 12 hour day/night cycle. The plants were grown four weeks before NPA treatment followed by a two week watering regime using 120 μM NPA (ChemService, West Chester, Pa., USA) or DMSO alone (solvent) applied every two days in a volume of 150 mL for each pot. Plants were fertilized once a week with 20-20-20 fertilizer. After 2 weeks of treatment, whole plants were collected and de-stained in chloroform:methanol (1:1 v/v). Acid hydrolysis was performed as described previously.

The subject of test [2] is wild type Arabidopsis seedlings. As to the kind of experiment: Sugar release by 0.2 M H2SO4 acid hydrolysis of NPA-treated Arabidopsis seedlings. Conditions: wild type (Col-0) 28 day-old seedlings on MS media with 1 or 5 μM NPA.
From the text: FIGS. 4A-4D illustrate the analysis of pin-shaped inflorescence mutants and NPA treatment, resulting in increased saccharification in Arabidopsis and maize. […] (Results are averages ±s.d. (n=4). *, P<0.001 and **, P<0.005 using Student's t-test; all experiments were repeated two times with similar results.)
as §1
The M2 generation of EMS-mutagenized Arabidopsis (Col-0) seeds were chilled for 4 days and sowed onto 0.5× MS plates placed vertically under continuous light conditions at room temperature. […] The samples were incubated at 100° C. for 5 minutes, cooled and the absorbance was read at 660 nm. Approximately 22,000 seedlings from 32 pools were screened from which 63 wall hydrolysis sensitive (whs) mutants were identified as having an absorbance reading greater than 2 standard deviations from wild type (FIG. 5). whs mutants were retested in the M3 generation.

Where two headings read alike, the source gives them in different places.

In the case of `NC(=O)c1nc(-c2ccccc2)n(-c2ccc(Cl)c(COCC(F)(F)C(F)(F)F)c2)n1` [Flupoxam, flupoxam], the IC50 in test [1] (read-out: Concentration at which root length is 50% of wt, allele fpx 1-1, Col-o, CesA3 S(1040)L) was 500 nM; in test [1] (read-out: Concentration at which root length is 50% of wt, allele fpx 1-2, Ler, CesA3 S(1037)F) it was more than 1000 nM; in test [1] (read-out: Concentration at which root length is 50% of wt, allele fpx 1-3, Ler, CesA3 S(983)F) it was 100 nM; in test [1] (read-out: Concentration at which root length is 50% of wt, allele fpx2-1, Ler, CesA1 G(1013)R), more than 1000 nM; in test [1] (read-out: Concentration at which root length is 50% of wt, allele fpx 2-2, Ler, CesA1 P(1010)L) it was 100 to 500 nM; in test [1] (read-out: Concentration at which root length is 50% of wt, allele fpx 2-3, Ler, CesA1 G(1009)D), 1000 nM.

For the molecule `CCC(C)(CC)c1cc(NC(=O)c2c(OC)cccc2OC)on1` [Isoxaben, isoxaben], the IC50 in test [1] (read-out: Concentration at which root length is 50% of wt, allele ixr1-1 (published), Col-0, CesA3 G(998)D) was more than 1000 nM; in test [1] (read-out: Concentration at which root length is 50% of wt, allele ixr1-2 (published), Col-0, CesA3 T(942)I), 500 nM; in test [1] (read-out: Concentration at which root length is 50% of wt, allele ixr1-3, Ler, CesA3 G(998)S) it was 100 nM; in test [1] (read-out: Concentration at which root length is 50% of wt, allele ixr1-4, Ler, CesA3 R(806)K) it was 50 nM; in test [1] (read-out: Concentration at which root length is 50% of wt, allele ixr1-5, Ler, CesA3 L(797)F), 10 nM; in test [1] (read-out: Concentration at which root length is 50% of wt, allele ixr1-6, Ler, CesA3 S(377)F), 50 nM. Further, the IC50 in test [1] (read-out: Concentration at which root length is 50% of wt, allele ixr1-7, Ler, CesA3 R(276)H) was 50 nM; in test [1] (read-out: Concentration at which root length is 50% of wt, allele ixr 2-1 (published), Col-0, CesA6 R(1064)W), 50 nM; in test [1] (read-out: Concentration at which root length is 50% of wt, allele ixr 2-2, Ler, CesA6 S(1002)F) it was 10 nM.

For the molecule `O=C(O)c1ccccc1C(=O)Nc1cccc2ccccc12` [NPA, N-1-naphthylphthalamic acid], the “cell wall accessibility (sugar release)” value in the test with Zea mays (maize) was “significant increase in cell wall accessibility”. Moreover, the “increase in the release of sugars relative to untreated plants” value in test [2] is 1.5 to 2 fold.
